The target in this assay is human H4 receptor (Homo sapiens (Human), UniProt Q9H3N8). Briefly: Binding assay on recombinant human histamine H4 receptor ([3H]histamine competition, SK-N-MC cell membranes). As to conditions: membranes harvested with cell harvester; [3H]histamine 10 nM; average of results; read-out: Cell Harvester Ki. Put shortly:
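Membranes from SK-N-MC cells stably or transiently transfected with human H4 receptor, prepared by homogenization and 30,000 g centrifugation in Tris/EDTA. Bound [3H]histamine separated by rapid filtration on PEI-treated GF/C filters, washed with ice-cold Tris/EDTA, counted by scintillation. '>' values denote highest concentration tested.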

SMILES strings stand for the structures. Bounds are passed on as bounds.

Chain of human H4 receptor (Q9H3N8 whole entry): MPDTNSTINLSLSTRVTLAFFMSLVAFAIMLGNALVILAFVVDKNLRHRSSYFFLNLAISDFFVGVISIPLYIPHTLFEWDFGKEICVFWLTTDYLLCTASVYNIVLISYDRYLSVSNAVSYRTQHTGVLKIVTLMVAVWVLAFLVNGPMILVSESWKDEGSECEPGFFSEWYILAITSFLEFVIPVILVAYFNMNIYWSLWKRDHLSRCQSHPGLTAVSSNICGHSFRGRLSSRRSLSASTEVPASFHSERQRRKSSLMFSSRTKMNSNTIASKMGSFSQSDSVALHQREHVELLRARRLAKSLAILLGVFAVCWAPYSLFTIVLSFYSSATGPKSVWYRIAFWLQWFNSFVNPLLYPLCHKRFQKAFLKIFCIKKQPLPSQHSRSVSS

As for `CN[C@@H]1CCN(c2ccnc(NC3CC4CC(C3C)C4(C)C)n2)C1` (stereo partly drawn) [Example 184, 4-[(3R)-3-(Methylamino)pyrrolidin-1-yl]-N-[(1S,2S,3S,5R)-2,6,6-trimethylbicyolo[3.1.1]hept-3-yl]pyrimidin-2-amine], the Ki – broadly, a measure of affinity in units of concentration, obtained from inhibition or displacement – was found to be 1.58 nM.

For `COc1ccc(CNc2nccc(N3CC[C@@H](N)C3)n2)cc1` [Example 185, 4-[(3R)-3-Aminopyrrolidin-1-yl]-N-(4-methoxybenzyl)pyrimidin-2-amine], the Ki worked out at 1730 nM.

With `Cc1ccc(CNc2nccc(N3CC[C@@H](N)C3)n2)cc1` [Example 186, 4-[(3R)-3-Aminopyrrolidin-1-yl]-N-(4-methylbenzyl)pyrimidin-2-amine], the Ki amounted to 691 nM.

On to `c1cc(N2CCNCC2)nc(NCC2CCCC2)n1` [Example 187, N-(Cyclopentylmethyl)-4-piperazin-1-ylpyrimidin-2-amine], for which the Ki stood at 71.5 nM.

Turning to `CN[C@@H]1CCN(c2ccnc(N[C@H]3C[C@H]4CC[C@]3(C)C4(C)C)n2)C1` [Example 190, 4-[(3R)-3-(Methylamino)pyrrolidin-1-yl]-N-[(1R,2S,4R)-1,7,7-trimethylbicyclo[2.2.1]hept-2-yl]pyrimidin-2-amine], the Ki came to 1.68 nM.

Regarding `CN[C@@H]1CCN(c2ccnc(NCC3CCCCC3)n2)C1` [Example 191, N-(Cyclohexylmethyl)-4-[(3R)-3-(methylamino)pyrrolidin-1-yl]pyrimidin-2-amine], the Ki worked out at 3.58 nM.

Consider `CN[C@@H]1CCN(c2ccnc(NC3CCCCC3)n2)C1` [Example 192, N-Cyclohexyl-4-[(3R)-3-(methylamino)pyrrolidin-1-yl]pyrimidin-2-amine], for which the Ki turned out to be 2.42 nM.

As for `c1cc(N2CCCNCC2)nc(NC2CC3CCC2C3)n1` (stereo not drawn) [Example 195, N-Bicyclo[2.2.1]hept-2-yl-4-(1,4-diazepan-1-yl)pyrimidin-2-amine], the Ki was determined as 7.75 nM.

In the case of `CCCCNc1nccc(N2CC[C@H](N)C2)n1` [Example 196, 4-[(3S)-3-Aminopyrrolidin-1-yl]-N-butylpyrimidin-2-amine], the Ki amounted to 224 nM.

As to `N[C@@H]1CCN(c2ccnc(NCC3CCCCC3)n2)C1` [Example 197, 4-[(3R)-3-Aminopyrrolidin-1-yl]-N-(cyclohexylmethyl)pyrimidin-2-amine], the Ki was found to be 17.3 nM.

For `CC(C)CNc1nccc(N2CC[C@H](N)C2)n1` [Example 198, 4-[(3S)-3-Aminopyrrolidin-1-yl]-N-(2-methylpropyl)pyrimidin-2-amine], the Ki was 55 nM.

In the case of `N[C@H]1CCN(c2ccnc(NCc3ccc(F)cc3)n2)C1` [Example 199, 4-[(3S)-3-Aminopyrrolidin-1-yl]-N-(4-fluorobenzyl)pyrimidin-2-amine], the Ki was found to be 2300 nM.

Turning to `CN[C@H]1CCN(c2ccnc(NCc3ccccn3)n2)C1` [Example 200, 4-[(3S)-3-(Methylamino)pyrrolidin-1-yl]-N-(pyridin-2-ylmethyl)pyrimidin-2-amine], the Ki worked out at 860 nM.

With `CN[C@H]1CCN(c2ccnc(N[C@H]3C[C@H]4CC[C@]3(C)C4(C)C)c2)C1` [Example 206, 4-[(3S)-3-(Methylamino)pyrrolidin-1-yl]-N-[(1R,2S,4R)-1,7,7-trimethylbicyclo[2.2.1]hept-2-yl]pyridin-2-amine], the Ki amounted to 44.9 nM.

Regarding `CN1CCN(c2ccnc(NC3C4C[C@H]5C[C@@H](C4)C[C@@H]3C5)c2)CC1` (stereo partly drawn) [Example 207, Adamantan-2-yl-[4-(4-methyl-piperazin-1-yl)-pyridin-2-yl]-amine], the Ki stood at 191 nM.

Consider `CN[C@@H]1CCN(c2ccnc(NC3C4CC5CC(C4)CC3C5)c2)C1` (stereo partly drawn) [Example 208, Adamantan-2-yl-[4-(3R)-(3-methylamino-pyrrolidin-1-yl)-pyridin-2-yl]-amine], for which the Ki came to 0.86 nM.

On to `CN[C@@H]1CCN(c2ccnc(N[C@H](C)C3CCCCC3)c2)C1` [Example 209, N-[(1R)-1-Cyclohexylethyl]-4-[(3R)-3-(methylamino)pyrrolidin-1-yl]pyridin-2-amine], for which the Ki came to 1460 nM.

As to `CN[C@H]1CCN(c2ccnc(NC34CC5CC(CC(C5)C3)C4)c2)C1` [Example 210, Adamantan-1-yl-[4-(3S)-(3-methylamino-pyrrolidin-1-yl)-pyridin-2-yl]-amine], the inhibition constant (Ki) is 296 nM.

Regarding `CN[C@@H]1CCN(c2ccnc(NCC3CCCCC3)c2)C1` [Example 211, N-(Cyclohexylmethyl)-4-[(3R)-3-(methylamino)pyrrolidin-1-yl]pyridin-2-amine], the Ki was determined as 1.68 nM.

For `CN1CCN(c2ccnc(NCC3CCCCC3)c2)CC1` [Example 212, N-(Cyclohexylmethyl)-4-(4-methylpiperazin-1-yl)pyridin-2-amine], the Ki came to 275 nM.

With `CN[C@H]1CCN(c2ccnc(N[C@H](C)C3CCCCC3)c2)C1` [Example 213, N-[(1R)-1-Cyclohexylethyl]-4-[(3S)-3-(methylamino)pyrrolidin-1-yl]pyridin-2-amine], the Ki turned out to be 157 nM.

On to `C[C@@H](Nc1cc(N2CCN(C)CC2)ccn1)C1CCCCC1` [Example 214, N-[(1R)-1-Cyclohexylethyl]-4-(4-methylpiperazin-1-yl)pyridin-2-amine], for which the Ki is 416 nM.

As for `CN[C@H]1CCN(c2ccnc(NC3C4CC5CC(C4)CC3C5)c2)C1` (stereo partly drawn) [Example 215, Adamantan-2-yl-[4-(3S)-(3-methylamino-pyrrolidin-1-yl)-pyridin-2-yl]-amine], the Ki came to 69.6 nM.

With `CN1CCN(c2ccnc(NCCCO)c2)CC1` [Example 216, 3-{[4-(4-Methylpiperazin-1-yl)pyridin-2-yl]amino}propan-1-ol], the Ki came to 1430 nM.

On to `CN[C@@H]1CCN(c2ccnc(NC34CC5CC(CC(C5)C3)C4)c2)C1` [Example 218, Adamantan-1-yl-[4-(3R)-(3-methylamino-pyrrolidin-1-yl)-pyridin-2-yl]-amine], for which the Ki turned out to be 2.62 nM.

In the case of `CN1CCN(c2ccnc(NC34C[C@H]5C[C@@H](C3)C[C@@H](C4)C5)c2)CC1` [Example 219, Adamantan-1-yl-[4-(4-methyl-piperazin-1-yl)-pyridin-2-yl]-amine], the Ki came out at 188 nM.

Consider `CN1CCN(c2ccnc(NC[C@H]3CC[C@H]4C[C@@H]3C4(C)C)c2)CC1` [Example 221, N-{[(1S,2S,5S)-6,6-Dimethylbicyclo[3.1.1]hept-2-yl]methyl}-4-(4-methylpiperazin-1-yl)pyridin-2-amine], for which the Ki was 853 nM.

Regarding `CN[C@@H]1CCN(c2ccnc(NC3CCOCC3)c2)C1` [Example 222, 4-[(3R)-3-(Methylamino)pyrrolidin-1-yl]-N-(tetrahydro-2H-pyran-4-yl)pyridin-2-amine], the Ki came out at 67.3 nM.

As to `CN1CCN(c2ccnc(NC3CCOCC3)c2)CC1` [Example 223, 4-(4-Methylpiperazin-1-yl)-N-(tetrahydro-2H-pyran-4-yl)pyridin-2-amine], the Ki amounted to 723 nM.

As to `CN[C@H]1CCN(c2ccnc(NC[C@H]3CC[C@H]4C[C@@H]3C4(C)C)c2)C1` [Example 224, N-{[(1S,2S,5S)-6,6-Dimethylbicyclo[3.1.1]hept-2-yl]methyl}-4-[(3S)-3-(methylamino)pyrrolidin-1-yl]pyridin-2-amine], the Ki turned out to be 239 nM.

For the compound `CN[C@H]1CCN(c2ccnc(NCC3CCCCC3)c2)C1` [Example 225, N-(Cyclohexylmethyl)-4-[(3S)-3-(methylamino)pyrrolidin-1-yl]pyridin-2-amine], the Ki was found to be 75.1 nM.

Regarding `CN[C@@H]1CCN(c2ccnc(NCC3CCCC3)c2)C1` [Example 226, N-(Cyclopentylmethyl)-4-[(3R)-3-(methylamino)pyrrolidin-1-yl]pyridin-2-amine], the Ki was determined as 3.81 nM.

On to `CN[C@H]1CCN(c2ccnc(NCC3CCCC3)c2)C1` [Example 227, N-(Cyclopentylmethyl)-4-[(3S)-3-(methylamino)pyrrolidin-1-yl]pyridin-2-amine], for which the Ki was determined as 260 nM.

Consider `CN[C@H]1CCN(c2ccnc(NCc3ccccn3)c2)C1` [Example 229, 4-[(3S)-3-(Methylamino)pyrrolidin-1-yl]-N-(pyridin-2-ylmethyl)pyridin-2-amine], for which the Ki is more than 10000 nM.

Turning to `CN[C@H]1CCN(c2ccnc(NC3C[C@H]4C[C@@H](C3C)C4(C)C)c2)C1` (stereo partly drawn) [Example 230, 4-[(3S)-3-(Methylamino)pyrrolidin-1-yl]-N-[(1S,5R)-2,6,6-trimethylbicyclo[3.1.1]hept-3-yl]pyridin-2-amine], the Ki is 276 nM.

As for `CC1C(Nc2cc(N3CCN(C)CC3)ccn2)C[C@H]2C[C@@H]1C2(C)C` (stereo partly drawn) [Example 232, 4-(4-Methylpiperazin-1-yl)-N-[(1S,5R)-2,6,6-trimethylbicyclo[3.1.1]hept-3-yl]pyridin-2-amine], the Ki came out at 716 nM.

Turning to `CN[C@H]1CCN(c2ccnc(NC(C)(C)C)c2)C1` [Example 233, N-tert-Butyl-4-[(3S)-3-(methylamino)pyrrolidin-1-yl]pyridin-2-amine], the Ki stood at 215 nM.

For the compound `CN[C@H]1CCN(c2ccnc(NCCCO)c2)C1` [Example 234, 3-({4-[(3S)-3-(Methylamino)pyrrolidin-1-yl]pyridin-2-yl}amino)propan-1-ol], the Ki worked out at 7260 nM.

On to `CN[C@H]1CCN(c2ccnc(NC3CC3)c2)C1` [Example 235, N-Cyclopropyl-4-[(3S)-3-(methylamino)pyrrolidin-1-yl]pyridin-2-amine], for which the Ki came out at 409 nM.

Turning to `CN1CCN(c2ccnc(NCC3CCCC3)c2)CC1` [Example 236, N-(Cyclopentylmethyl)-4-(4-methylpiperazin-1-yl)pyridin-2-amine], the Ki was found to be 47.4 nM.

Take `CN[C@H]1CCN(c2ccnc(NCc3ccccc3)c2)C1` [Example 237, N-Benzyl-4-[(3S)-3-(methylamino)pyrrolidin-1-yl]pyridin-2-amine]: the Ki amounted to 585 nM.

In the case of `CN[C@H]1CCN(c2ccnc(NCCOC)c2)C1` [Example 238, N-(2-Methoxyethyl)-4-[(3S)-3-(methylamino)pyrrolidin-1-yl]pyridin-2-amine], the Ki was determined as 555 nM.

(Values after patent publication US9732087B2, “Diamino-pyridine, pyrimidine, and pyridazine modulators of the histamine H4 receptor” (JANSSEN PHARMACEUTICA NV, priority 2008, dated 2017).)
